Data: patent US12466863B2, “Nuclear reprogramming factor and induced pluripotent stem cells” (Kyoto University, priority 2005, dated 2025)

Columns and labels:
[1] = tested on: MEFs with Nanog-EGFP-IRES-Puro; assay: GFP-positive colonies from Nanog-EGFP-IRES-Puro MEFs after 4-factor transduction and puromycin selection; type: cell-based, mouse; settings: PD98059 25 μM continuously from the next day of retroviral transfection; 4 factors; 8% without PD98059
From the text: Studies were made as to whether iPS cells could be established with a reporter other than Fbx15-βgeo. Escherichia coli artificial chromosome (BAC) containing the Nanog gene in the center was isolated, and then the GFP gene and the puromycin resistance gene were knocked in by recombination in E. coli (FIG. 12A). Subsequently, the above modified BAC was introduced into ES cells to confirm that the cells became GFP-positive in an undifferentiated state specific manner (data not shown). Then, these ES cells were transplanted in mouse blastocysts to create transgenic mice via chimeric mice. In these mice, GFP-positive cells were specifically observed in inner cell masses of the blastocysts or gonads of embryos at 13.5 days after fertilization (FIG. 12B). The gonads were removed from the embryos at 13.5 days after fertilization (hybrid of DBA, 129, and C57BL/6 mice), and MEFs were isolated. The isolated MEFs were confirmed to be GFP-negative (FIG. 13) by flow cytometry. These MEFs were retrovirally transduced with the 4 factors and subjected to puromycin selection, and as a result, a plural, number of resistant colonies were obtained. Only about 10 to 20% of the colonies were GFP-positive. When the GFP-positive colonies were passaged, they gave morphology (FIG. 14) and proliferation (FIG. 15) similar to those of ES cells. […]

[2] = tested on: MEFs derived from the Fbx15^βgeo/βgeo mouse; assay: Effect of cytokine (bFGF- or SCF-producing STO feeder cells) on iPS cell establishment; type: cell-based; settings: no colony on normal STO cells
From the text: An effect of cytokine on iPS cell establishment was investigated. Expression vector (pMX retroviral vector) for basic fibroblast growth factor (bFGF) or stem cell factor (SCF) was transduced into feeder cells (STO cells) to establish cells permanently expressing the cytokines. […] As a result, the number of formed colonies increased 20 times or higher on the STO cells producing bFGF (FIG. 11) or SCF (data not shown), as compared with the culture on normal STO cells.

| Molecule | percentage of GFP-positive colonies [1] | iPS cell colony formation with the 3 factors other than c-Myc [2] |
| --- | --- | --- |
| COc1cccc(-c2cc(=O)c3ccccc3o2)c1N [PD98059] | 45% |  |
| SCF: cytokine produced by STO feeder cells transduced with pMX expression vector |  | colony formation was observed |
| bFGF: cytokine produced by STO feeder cells transduced with pMX expression vector |  | colony formation was observed |
